From ChEMBL document CHEMBL4406824, “Phenolic N-monosubstituted carbamates: Antitubercular and toxicity evaluation of multi-targeting compounds” (Eur J Med Chem, 2019)
Values after ≈ are worked out from the molar mass of the structure shown.

Key:
[1] = tested on: Mycobacterium tuberculosis H37Rv; test: Inhibition of recombinant Mycobacterium tuberculosis H37Rv ICL1 expressed in Escherichia coli BL21 (DE3) cells at 10 uM using (+)-potassium Ds-threo-isocitrate as substrate by glyoxylate phenyl hydrazone formation assay relative to control
Mycolicibacterium aurum = test: Antimycobacterial activity against Mycobacterium aurum DSM 43999 after 72 hr by resazurin dye based microdilution method; type: functional; details: DSM 43999, 72 h
[2] = tested on: Mycobacterium tuberculosis; test: Antimycobacterial activity against Mycobacterium tuberculosis H37Ra ITM-M006710 after 48 hr by resazurin dye based microdilution method; type: functional; details: H37Ra ITM-M006710, 48 h
[3] = tested on: Mycolicibacterium smegmatis; test: Antimycobacterial activity against Mycobacterium smegmatis DSM 43465 after 120 hr by resazurin dye based microdilution method; type: functional; details: DSM 43465, 120 h
Mycobacterium kansasii [4] = test: Antimycobacterial activity against Mycobacterium kansasii 6509/96 after 21 days; type: functional; details: 6509/96, 504 h
[5] = tested on: Mycobacterium tuberculosis; type: functional; details: H37Rv 331/88, 336 h
Mycobacterium kansasii [6] = test: Antimycobacterial activity against Mycobacterium kansasii 6509/96 after 7 days; type: functional; details: 6509/96, 168 h
Mycobacterium avium [7] = test: Antimycobacterial activity against Mycobacterium avium 330/88 after 14 days; type: functional; details: 330/88, 336 h
Mycobacterium kansasii [8] = test: Antimycobacterial activity against Mycobacterium kansasii 235/80 after 14 days; type: functional; details: 235/80, 336 h
[9] = tested on: Mycobacterium tuberculosis; type: functional; details: H37Rv 331/88, 504 h
Mycobacterium kansasii [10] = test: Antimycobacterial activity against Mycobacterium kansasii 6509/96 after 14 days; type: functional; details: 6509/96, 336 h
Mycobacterium kansasii [11] = test: Antimycobacterial activity against Mycobacterium kansasii 235/80 after 21 days; type: functional; details: 235/80, 504 h
Mycobacterium kansasii [12] = test: Antimycobacterial activity against Mycobacterium kansasii 235/80 after 7 days; type: functional; details: 235/80, 168 h
Mycobacterium avium [13] = test: Antimycobacterial activity against Mycobacterium avium 330/88 after 21 days; type: functional; details: 330/88, 504 h
in vitro = details: human, HepG2 cells
Description: Selectivity index, ratio of IC50 for human HepG2 cells to MIC for antimycobacterial activity against Mycobacterium tuberculosis H37Rv

HepG2 [14] = test: Cytostatic activity against human HepG2 cells preincubated for overnight in serum free medium followed by compound wash out and further incubated for 72 hrs in presence of serum by MTT assay; type: ADME, cell-based
HepG2 [15] = test: Cytotoxicity against human HepG2 cells assessed as reduction in cell viability after overnight incubation by MTT assay; type: cell-based

SMILES: O=C(O)CC[N+](=O)[O-]
- inhibition [1]: 25%

SMILES: CO[C@H]1/C=C/O[C@@]2(C)Oc3c(C)c(O)c4c(O)c(c(/C=N/N5CCN(C)CC5)c(O)c4c3C2=O)NC(=O)/C(C)=C\C=C\[C@H](C)[C@H](O)[C@@H](C)[C@@H](O)[C@@H](C)[C@H](OC(C)=O)[C@@H]1C [RIFAMPIN]
- MIC (Mycolicibacterium aurum): 0.47 µM
- MIC [2]: 0.0005 to 0.009 µM
- MIC [3]: 12.5 to 25 µg/mL

SMILES: Oc1ccc(Cl)cc1 [PARACHLOROPHENOL]
- MIC (Mycobacterium kansasii [4]): > 250 µM
- MIC [5]: 125 µM (≈ 16.1 µg/mL)
- MIC (Mycobacterium kansasii [6]): 125 µM (≈ 16.1 µg/mL)
- MIC (Mycobacterium avium [7]): > 250 µM
- MIC (Mycobacterium kansasii [8]): > 250 µM
- MIC [9]: 250 µM (≈ 32.1 µg/mL)
- MIC (Mycobacterium kansasii [10]): 250 µM (≈ 32.1 µg/mL)
- MIC (Mycobacterium kansasii [11]): > 250 µM
- MIC (Mycobacterium kansasii [12]): 250 µM (≈ 32.1 µg/mL)
- MIC (Mycobacterium avium [13]): > 250 µM

SMILES: O=C(Nc1ccccc1)Oc1ccccc1C(=O)Nc1ccccc1
- MIC (Mycobacterium kansasii [4]): 250 µM (≈ 83.1 µg/mL)
- MIC [5]: 125 µM (≈ 41.5 µg/mL)
- inhibition [1]: 5%
- MIC (Mycobacterium kansasii [6]): 125 µM (≈ 41.5 µg/mL)
- MIC (Mycobacterium avium [7]): 125 µM (≈ 41.5 µg/mL)
- MIC (Mycobacterium kansasii [8]): 250 µM (≈ 83.1 µg/mL)
- MIC [9]: 125 µM (≈ 41.5 µg/mL)
- selectivity ratio (in vitro): 0.5
- MIC (Mycobacterium kansasii [10]): 250 µM (≈ 83.1 µg/mL)
- MIC (Mycobacterium kansasii [11]): 250 µM (≈ 83.1 µg/mL)
- IC50 (HepG2 [14]): 26.8 µM
- MIC (Mycobacterium kansasii [12]): 125 µM (≈ 41.5 µg/mL)
- MIC (Mycolicibacterium aurum): 31.2 µg/mL
- MIC (Mycobacterium avium [13]): 125 µM (≈ 41.5 µg/mL)
- IC50 (HepG2 [15]): 57.6 µM
- MIC [2]: 31.2 µg/mL
- MIC [3]: 31.2 µg/mL

SMILES: CC[C@@H](CO)NCCN[C@@H](CC)CO [ETHAMBUTOL]
- MIC (Mycolicibacterium aurum): 0.9 µM
- MIC [2]: 1.8 µM
- MIC [3]: 1.8 µM

SMILES: O=C(NCc1ccccc1)Oc1ccc(Cl)cc1
- MIC (Mycobacterium kansasii [4]): 500 µM (≈ 131 µg/mL)
- MIC [5]: 125 µM (≈ 32.7 µg/mL)
- inhibition [1]: 14%
- MIC (Mycobacterium kansasii [6]): 125 µM (≈ 32.7 µg/mL)
- MIC (Mycobacterium avium [7]): 500 µM (≈ 131 µg/mL)
- MIC (Mycobacterium kansasii [8]): 250 µM (≈ 65.4 µg/mL)
- MIC [9]: 250 µM (≈ 65.4 µg/mL)
- selectivity ratio (in vitro): > 0.5
- MIC (Mycobacterium kansasii [10]): 250 µM (≈ 65.4 µg/mL)
- MIC (Mycobacterium kansasii [11]): 500 µM (≈ 131 µg/mL)
- IC50 (HepG2 [14]): > 125 µM
- MIC (Mycobacterium kansasii [12]): 125 µM (≈ 32.7 µg/mL)
- MIC (Mycolicibacterium aurum): 125 µg/mL
- MIC (Mycobacterium avium [13]): 500 µM (≈ 131 µg/mL)
- IC50 (HepG2 [15]): > 125 µM
- MIC [2]: 31.2 µg/mL
- MIC [3]: 152 µg/mL

SMILES: NNC(=O)c1ccncc1 [ISONIAZID]
- MIC (Mycobacterium kansasii [4]): 8 µM (≈ 1.1 µg/mL)
- MIC [5]: 0.5 µM (≈ 0.0686 µg/mL)
- inhibition [1]: 0%
- MIC (Mycobacterium kansasii [6]): 4 µM (≈ 0.549 µg/mL)
- MIC (Mycobacterium avium [7]): > 250 µM
- MIC (Mycobacterium kansasii [8]): > 250 µM
- MIC [9]: 1 µM (≈ 0.137 µg/mL)
- selectivity ratio (in vitro): > 250
- MIC (Mycobacterium kansasii [10]): 8 µM (≈ 1.1 µg/mL)
- MIC (Mycobacterium kansasii [11]): > 250 µM
- MIC (Mycobacterium kansasii [12]): > 250 µM
- MIC (Mycolicibacterium aurum): 3.91 µg/mL
- MIC (Mycobacterium avium [13]): > 250 µM
- IC50 (HepG2 [15]): > 250 µM
- MIC [2]: 0.91 to 1.82 µM
- MIC [3]: 15.6 µg/mL

SMILES: O=C(NC1CCCCC1)Oc1ccccc1C(=O)Nc1ccccc1
- MIC (Mycobacterium kansasii [4]): 250 µM (≈ 84.6 µg/mL)
- MIC [5]: 125 µM (≈ 42.3 µg/mL)
- inhibition [1]: 8%
- MIC (Mycobacterium kansasii [6]): 125 µM (≈ 42.3 µg/mL)
- MIC (Mycobacterium avium [7]): 125 µM (≈ 42.3 µg/mL)
- MIC (Mycobacterium kansasii [8]): 250 µM (≈ 84.6 µg/mL)
- MIC [9]: 125 µM (≈ 42.3 µg/mL)
- selectivity ratio (in vitro): 0.4
- MIC (Mycobacterium kansasii [10]): 250 µM (≈ 84.6 µg/mL)
- MIC (Mycobacterium kansasii [11]): 250 µM (≈ 84.6 µg/mL)
- IC50 (HepG2 [14]): 51.5 µM
- MIC (Mycobacterium kansasii [12]): 125 µM (≈ 42.3 µg/mL)
- MIC (Mycolicibacterium aurum): 15.6 µg/mL
- MIC (Mycobacterium avium [13]): 125 µM (≈ 42.3 µg/mL)
- IC50 (HepG2 [15]): 49 µM
- MIC [2]: 15.6 µg/mL
- MIC [3]: 15.6 µg/mL

SMILES: O=C(NC1CCCCC1)Oc1ccc(Cl)cc1
- MIC (Mycobacterium kansasii [4]): 250 µM (≈ 63.4 µg/mL)
- MIC [5]: 500 µM (≈ 127 µg/mL)
- inhibition [1]: 16%
- MIC (Mycobacterium kansasii [6]): 125 µM (≈ 31.7 µg/mL)
- MIC (Mycobacterium avium [7]): 500 µM (≈ 127 µg/mL)
- MIC (Mycobacterium kansasii [8]): 500 µM (≈ 127 µg/mL)
- MIC [9]: 500 µM (≈ 127 µg/mL)
- selectivity ratio (in vitro): > 0.3
- MIC (Mycobacterium kansasii [10]): 250 µM (≈ 63.4 µg/mL)
- MIC (Mycobacterium kansasii [11]): 1000 µM (≈ 254 µg/mL)
- IC50 (HepG2 [14]): > 125 µM
- MIC (Mycobacterium kansasii [12]): 250 µM (≈ 63.4 µg/mL)
- MIC (Mycolicibacterium aurum): ≥ 500 µg/mL
- MIC (Mycobacterium avium [13]): 1000 µM (≈ 254 µg/mL)
- IC50 (HepG2 [15]): > 125 µM
- MIC [2]: 500 µg/mL
- MIC [3]: ≥ 500 µg/mL
